Results from PMC2990756, “Quantitative High-Throughput Screening Identifies 8-Hydroxyquinolines as Cell-Active Histone Demethylase Inhibitors” (PLoS ONE, 2010).
Where two headings read alike, the source gives them in different places.

Legend:
Format in all cases: biochemical
[1] = molecular target: T1, formaldehyde dehydrogenase (FDH) (Pseudomonas putida, UniProt P46154); test: FDH coupling enzyme counterscreen; conditions: Table S1, FDH counterscreen; for IC50: unit not in table, from Figure 2, read-out: qHTS Data: jmjd2e fdh IC50
T1 construct: purchased Sigma-Aldrich
Excerpt: Dimethylsulfoxide certified ACS grade (DMSO) was from Fisher, Inc. HEPES buffer was obtained from Gibco. […] Black solid-bottom 1,536-well assay plates were from Greiner Bio-One (Monroe, NC).

JMJD2E (KDM4E) = molecular target: T2, JMJD2E (KDM4E) (Homo sapiens, UniProt B2RXH2); test: qHTS fluorescence FDH-coupled JMJD2E demethylase assay
T2 construct: The catalytic domain of human JMJD2E (residues 1–337); His6 (N); made in house; host or cells: E. coli
T2 sequence (B2RXH2 1-337): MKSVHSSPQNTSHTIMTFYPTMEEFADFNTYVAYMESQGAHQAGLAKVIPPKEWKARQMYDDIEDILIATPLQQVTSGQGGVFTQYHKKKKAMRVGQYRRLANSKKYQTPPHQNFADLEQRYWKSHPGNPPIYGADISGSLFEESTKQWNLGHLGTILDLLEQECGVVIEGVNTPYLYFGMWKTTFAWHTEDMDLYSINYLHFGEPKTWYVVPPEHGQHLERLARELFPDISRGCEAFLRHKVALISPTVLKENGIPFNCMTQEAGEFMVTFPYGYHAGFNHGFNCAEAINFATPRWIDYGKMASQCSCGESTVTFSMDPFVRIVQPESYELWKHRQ
Excerpt: The oxidation of formaldehyde is coupled to the reduction of NAD^+ to NADH, which is monitored by fluorescence spectroscopy. […] To this end, initial screening hits were filtered by a combination of cheminformatics (to exclude low-confidence inhibitors and autofluorescent false positives), counterscreening against the coupled-assay component formaldehyde dehydrogenase (FDH), and orthogonal direct detection of inhibition of demethylation by mass spectrometry ( Figure 1 ).
Reactions were initiated with 1 µL addition of peptide substrate solution containing final concentrations of 10 µM FAS, 50 µM 2OG, 0.25 U/mL FDH, 0.25 mM NAD^+, and 50 µM peptide substrate (ARK(me3)STGGK). A ViewLux imager (PerkinElmer, Waltham, MA) was used to measure NADH fluorescence (λex 340 nm, λem 450 nm) immediately after substrate addition and following 30 min incubation at room temperature. To record any systematic drifts in assay behavior (signal window and noise), assay plates containing no library compounds but only DMSO as a vehicle control were tested periodically (every ∼60 plates) throughout the screen.
Data were normalized to the basal response (0% activity) in the absence of enzyme and the maximal response (100% activity) in the absence of compound. Using the Hill equation, dose-response curves and IC50 values were automatically generated for each compound tested with software developed internally (www.ncgc.nih.gov/pub/openhts/curvefit/). […] The initial well fluorescence (first kinetic read) associated with each sample was stored in a database and used in the cheminformatics analysis to identify autofluorescent compounds interfering with the assay signal.

JMJD2E = molecular target: T3, JMJD2E (Homo sapiens, UniProt B2RXH2); test: JMJD2E FDH-coupled assay under low and high iron conditions (iron chelation profile); design: The catalytic domain of human JMJD2E (residues 1–337); His6 (N); made in house; host or cells: E. coli; conditions: Table S1; for IC50: unit not in table, from Figure 2
T3 sequence (B2RXH2 1-337): T2 sequence (B2RXH2 1-337)
Description: The prioritized compounds were also evaluated in the screening assay using two different ferrous ion concentrations (termed high iron and low iron, respectively), in order to assess their propensity for iron chelation.
The ratio of IC50 values under high iron to low iron was calculated for each compound.

[2] = Table S1, unit not in table, from Figure 2, read-out: qHTS Data: jmjd2e IC50
[3] = high iron, head says 20 µM FAS, read-out: qHTS Data: jmjd2e fas20um IC50
[4] = low iron 2.5 µM FAS, read-out: qHTS Data: jmjd2e fas2.5um IC50

T1 sequence (P46154 whole entry): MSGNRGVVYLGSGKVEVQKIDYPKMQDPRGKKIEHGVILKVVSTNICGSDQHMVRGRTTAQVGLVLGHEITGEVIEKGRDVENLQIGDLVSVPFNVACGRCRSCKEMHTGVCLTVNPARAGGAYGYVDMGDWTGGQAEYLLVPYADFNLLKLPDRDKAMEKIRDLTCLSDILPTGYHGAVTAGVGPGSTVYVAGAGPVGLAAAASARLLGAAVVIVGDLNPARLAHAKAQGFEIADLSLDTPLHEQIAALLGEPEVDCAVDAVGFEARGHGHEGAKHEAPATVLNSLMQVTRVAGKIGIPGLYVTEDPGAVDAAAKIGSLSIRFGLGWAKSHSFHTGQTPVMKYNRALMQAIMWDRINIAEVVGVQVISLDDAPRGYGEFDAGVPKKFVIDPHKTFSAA

Row | SMILES | qHTS Data: jmjd2e fdh CurveClass [1] | IC50 [1] [µM] | further results
1 | O=C(NNC(=O)c1ccc(O)cc1O)c1ccc(Cl)cc1 [compound 17414133] | Inactive | – | –
2 | Cc1nc(-c2coc3c(O)c(O)ccc3c2=O)cs1 [compound 50110018] | Poor quality curve | 17.8 | IC50 (JMJD2E (KDM4E); [2]): 7.08 µM; IC50 (JMJD2E; [3]): 15.8 µM; IC50 (JMJD2E; [4]): 7.08 µM
3 | O=c1cc(O)c2sc(Nc3ccc(F)cc3)nc2[nH]1 [compound 17505973] | Inactive | – | –
4 | CN(C)S(=O)(=O)c1cccc(-n2sc3ccccc3c2=O)c1 [compound 24834029] | Poor quality curve | 7.94 | IC50 (JMJD2E (KDM4E); [2]): 3.55 µM; IC50 (JMJD2E; [3]): 1.26 µM; IC50 (JMJD2E; [4]): 4.47 µM
5 | Cc1cc(C(=O)NNC(=S)NC(=O)/C=C/c2ccccc2Cl)n[nH]1 [compound 14736067] | Inactive | – | IC50 (JMJD2E (KDM4E); [2]): 7.94 µM; qHTS Data: jmjd2e fas20um CurveClass (JMJD2E; high iron): Inactive; IC50 (JMJD2E; [4]): 8.91 µM
6 | O=C(CN1CCN(Cc2ccccc2)CC1)NC(c1ccccc1)c1ccccc1.O=C(O)C(=O)O [compound 24822653] | Inactive | – | –
7 | O=C(NO)c1ccccc1O [compound 855524] | Poor quality curve | 3.55 | IC50 (JMJD2E (KDM4E); [2]): 10 µM; qHTS Data: jmjd2e fas20um CurveClass (JMJD2E; high iron): Inactive; IC50 (JMJD2E; [4]): 12.6 µM
8 | COc1ccc(Cn2c(O)c(/C=N/NC(=O)c3ccncc3)c(=O)[nH]c2=O)cc1 [compound 26667135] | Poor quality curve | 14.1 | IC50 (JMJD2E (KDM4E); [2]): 7.94 µM; IC50 (JMJD2E; [3]): 8.91 µM; IC50 (JMJD2E; [4]): 8.91 µM
9 | CCC(=O)c1ccccc1OCCN1CCN(Cc2ccccc2)CC1.O=C(O)C(=O)O [compound 24782649] | Inactive | – | –
10 | Clc1ccc(SCCN2CCNCC2)cc1.O=C(O)C(=O)O [compound 24783981] | Inactive | – | –
11 | O=C(CC1Sc2ncnn2C1=O)Nc1ccccc1 (centres unmarked) [compound 14735867] | – | 0.28 | –
12 | Cc1ccc2ccc(C(Nc3ccccn3)c3ccccc3)c(O)c2n1 (centres unmarked) [compound 14737227] | – | – | IC50 (JMJD2E (KDM4E); [2]): 39.8 µM
13 | COc1ccccc1NC(=O)c1sc2ncn(Cc3ccccc3C)c(=O)c2c1C [SID 17408386] | – | – | IC50 (JMJD2E (KDM4E); Figure 2, 100 nM JMJD2E, 10 µM FAS, read-out: IC50 values in μM, qHTS): 4.5 µM
14 | COc1ccc(Cl)cc1CSc1ncn[nH]1 [compound 26662682] | – | 0.32 | –
15 | CC1(OC(=O)CCc2ccccc2)C(=O)C=C2C=C(c3ccc(C#N)cc3)N(C3CC3)C=C2C1=O (centres unmarked) [compound 26725552] | Inactive | – | –
16 | CC(C)NC[C@H](O)c1ccc(O)c(O)c1 [compound 11112573] | Inactive | – | –
17 | COCCN1C=C2C(=O)C(C)(OC(=O)CCc3ccccc3)C(=O)C=C2C=C1c1ccc(C#N)cc1 (centres unmarked) [compound 26725518] | Poor quality curve | – | –
18 | O=C(O)C(=O)O.O=C(c1ccccc1)N1CCN(CC2CC=CCC2)CC1 (centres unmarked) [compound 844960] | Inconclusive | 5.01 | –
19 | Oc1cc(O)c2c(c1)OC(c1cc(O)c(O)c(O)c1)C(O)C2 (centres unmarked) [compound 26749553] | – | – | IC50 (JMJD2E (KDM4E); [2]): 1.41 µM; qHTS Data: jmjd2e fas20um CurveClass (JMJD2E; high iron): Poor quality curve; IC50 (JMJD2E; [3]): 3.16 µM; IC50 (JMJD2E; [4]): 2.82 µM
20 | CCOc1ccc2ccccc2c1/C=N/NC(=O)CNC(=O)C(c1ccccc1)c1ccccc1 [compound 17512004] | – | 10 | –
21 | OCc1ccnc2c(O)cccc12 [compound 857270] | – | – | IC50 (JMJD2E (KDM4E); Figure 3, substituted 8-hydroxyquinolines against JMJD2E, read-out: IC50 /μM (qHTS IC50, FDH-coupled assay)): 8.9 µM
22 | CN(C)CCCNCC(=O)Nc1ccc(Cl)cc1C(=O)c1ccccc1.O=C(O)C(=O)O [compound 24839839] | Inactive | – | –
23 | O=C(Cc1ccccc1)N1CCN(Cc2ccccn2)CC1 [compound 4263376] | Inactive | – | –
24 | COc1cc(C2C3=C(CCCC3=O)Nc3c2c(C)nn3-c2cccc(C)c2)cc(OC)c1O (centres unmarked) [compound 26724424] | Inactive | – | –
25 | COc1cc(CNCCN2CCOCC2)ccc1OCc1c(Cl)cccc1Cl.Cl [compound 17505294] | Inactive | – | –
26 | O=C(Nc1ccccc1C(F)(F)F)c1ncn[nH]1 [compound 24822488] | Poor quality curve | 22.4 | –
27 | Fc1ccc(/C=C2\CCCC3=C2Nc2ncnn2C3c2ccc(F)cc2)cc1 (centres unmarked) [compound 14745056] | – | 10 | –
28 | O=C(O)C(=O)O.S=C(NCC1CCCO1)N1CCN(Cc2ccccc2)CC1 (centres unmarked) [compound 24807070] | Inactive | – | –
29 | Cc1ccc(NC2=CC(=O)CC(C)(C)C2)c(N)c1 [compound 849268] | Inactive | – | –
